# Assay results taken from ChEMBL document CHEMBL3734671, “Design and synthesis of an in vivo-efficacious PIM3 kinase inhibitor as a candidate anti-pancreatic cancer agent” (Bioorg Med Chem Lett, 2015).
# Tests used:
# [1] = target: Dual specificity mitogen-activated protein kinase kinase 1 (Homo sapiens) (UniProt Q02750); experiment: Inhibition of MAP2K1 (unknown origin) at 200 nM by ELISA
# [2] = target: RAF proto-oncogene serine/threonine-protein kinase (Homo sapiens) (UniProt P04049); experiment: Inhibition of RAF1 (unknown origin) at 200 nM by ELISA
# hERG (KCNH2) = hERG (KCNH2) (Homo sapiens, UniProt Q12809); experiment: Inhibition of human ERG at 10 uM by patch-clamp method
# Sequence of hERG (KCNH2) (Q12809 whole entry): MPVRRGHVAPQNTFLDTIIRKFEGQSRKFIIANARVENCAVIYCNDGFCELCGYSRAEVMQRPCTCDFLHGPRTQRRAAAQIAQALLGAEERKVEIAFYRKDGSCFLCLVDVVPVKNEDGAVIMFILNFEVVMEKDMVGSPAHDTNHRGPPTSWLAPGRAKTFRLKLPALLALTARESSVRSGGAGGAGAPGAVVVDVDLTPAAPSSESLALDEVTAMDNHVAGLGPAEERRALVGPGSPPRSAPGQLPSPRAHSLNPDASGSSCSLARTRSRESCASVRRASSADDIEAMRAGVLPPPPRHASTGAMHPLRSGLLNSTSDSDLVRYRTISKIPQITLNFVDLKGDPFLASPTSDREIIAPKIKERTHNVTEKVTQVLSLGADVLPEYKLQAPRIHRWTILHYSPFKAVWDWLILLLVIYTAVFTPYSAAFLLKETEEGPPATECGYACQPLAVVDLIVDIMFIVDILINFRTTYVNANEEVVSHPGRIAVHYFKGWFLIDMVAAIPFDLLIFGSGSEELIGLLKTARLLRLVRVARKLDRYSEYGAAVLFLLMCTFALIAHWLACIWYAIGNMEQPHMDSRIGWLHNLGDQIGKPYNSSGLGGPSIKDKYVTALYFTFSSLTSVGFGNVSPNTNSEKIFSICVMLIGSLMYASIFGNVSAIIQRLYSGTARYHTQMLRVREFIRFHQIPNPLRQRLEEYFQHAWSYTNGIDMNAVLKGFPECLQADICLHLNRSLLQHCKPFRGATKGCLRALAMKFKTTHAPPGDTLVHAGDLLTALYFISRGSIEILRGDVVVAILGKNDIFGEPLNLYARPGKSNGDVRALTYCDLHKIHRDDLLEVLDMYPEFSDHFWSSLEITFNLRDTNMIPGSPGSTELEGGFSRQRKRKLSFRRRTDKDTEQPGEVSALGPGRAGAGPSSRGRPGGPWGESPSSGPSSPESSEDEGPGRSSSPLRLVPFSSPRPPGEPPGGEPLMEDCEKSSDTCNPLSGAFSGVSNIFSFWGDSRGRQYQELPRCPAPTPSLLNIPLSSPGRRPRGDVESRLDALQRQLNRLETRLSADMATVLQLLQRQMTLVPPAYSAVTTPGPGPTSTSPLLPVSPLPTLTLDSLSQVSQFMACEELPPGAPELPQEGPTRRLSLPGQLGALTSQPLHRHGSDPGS
# CYP2C9 = CYP2C9 (Homo sapiens, UniProt P11712); experiment: Inhibition of CYP2C9 (unknown origin) at 10 uM; format: ADME
# CYP2C19 = CYP2C19 (Homo sapiens, UniProt P33261); experiment: Inhibition of CYP2C19 (unknown origin) at 10 uM; format: ADME
# CYP2D6 = CYP2D6 (Homo sapiens, UniProt P10635); experiment: Inhibition of CYP2D6 (unknown origin) at 10 uM; format: ADME
# CYP3A4 = CYP3A4 (Homo sapiens, UniProt P08684); experiment: Inhibition of CYP3A4 (unknown origin) at 10 uM; format: ADME
# [3] = target: Tyrosine-protein kinase ABL1 (Homo sapiens) (UniProt P00519); experiment: Inhibition of ABL (unknown origin) at 200 nM by electrophoretic mobility shift assay
# [4] = target: Epidermal growth factor receptor (Homo sapiens) (UniProt P00533); experiment: Inhibition of EGFR (unknown origin) at 200 nM by electrophoretic mobility shift assay
# Sequence of Epidermal growth factor receptor (Homo sapiens) (P00533 whole entry): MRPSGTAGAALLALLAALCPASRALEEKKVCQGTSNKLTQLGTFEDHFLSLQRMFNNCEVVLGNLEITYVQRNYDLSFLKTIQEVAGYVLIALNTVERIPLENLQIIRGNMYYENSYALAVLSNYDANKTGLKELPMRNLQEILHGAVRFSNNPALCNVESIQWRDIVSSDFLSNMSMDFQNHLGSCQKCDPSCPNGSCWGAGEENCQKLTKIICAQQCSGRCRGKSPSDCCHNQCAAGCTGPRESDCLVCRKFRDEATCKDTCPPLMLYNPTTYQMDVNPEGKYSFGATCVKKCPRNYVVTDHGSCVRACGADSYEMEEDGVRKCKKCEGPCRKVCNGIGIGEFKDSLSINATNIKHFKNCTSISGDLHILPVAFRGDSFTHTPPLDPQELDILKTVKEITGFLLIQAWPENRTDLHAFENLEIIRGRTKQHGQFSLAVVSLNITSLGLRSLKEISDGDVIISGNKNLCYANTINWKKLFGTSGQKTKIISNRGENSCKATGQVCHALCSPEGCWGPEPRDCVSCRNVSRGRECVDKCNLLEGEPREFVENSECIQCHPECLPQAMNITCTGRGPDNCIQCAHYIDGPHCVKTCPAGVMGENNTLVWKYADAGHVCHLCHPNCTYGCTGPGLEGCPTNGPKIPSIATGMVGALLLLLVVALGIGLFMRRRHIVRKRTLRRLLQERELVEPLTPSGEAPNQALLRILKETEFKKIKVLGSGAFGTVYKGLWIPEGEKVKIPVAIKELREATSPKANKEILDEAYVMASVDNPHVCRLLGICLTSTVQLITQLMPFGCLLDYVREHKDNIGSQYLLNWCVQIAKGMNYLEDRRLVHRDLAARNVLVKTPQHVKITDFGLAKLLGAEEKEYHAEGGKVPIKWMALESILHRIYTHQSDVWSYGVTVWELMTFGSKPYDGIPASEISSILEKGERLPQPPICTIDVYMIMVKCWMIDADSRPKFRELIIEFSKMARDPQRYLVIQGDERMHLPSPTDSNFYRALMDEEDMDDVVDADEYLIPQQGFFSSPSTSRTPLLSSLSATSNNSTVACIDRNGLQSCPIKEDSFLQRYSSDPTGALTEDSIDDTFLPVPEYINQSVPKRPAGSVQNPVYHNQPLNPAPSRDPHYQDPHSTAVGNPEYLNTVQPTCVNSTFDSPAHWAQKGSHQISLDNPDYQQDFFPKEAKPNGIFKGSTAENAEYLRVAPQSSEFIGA
# [5] = target: Ephrin type-A receptor 2 (Homo sapiens) (UniProt P29317); experiment: Inhibition of EPHA2 (unknown origin) at 200 nM by electrophoretic mobility shift assay
# [6] = target: Fibroblast growth factor receptor 1 (Homo sapiens) (UniProt P11362); experiment: Inhibition of FGFR1 (unknown origin) at 200 nM by electrophoretic mobility shift assay
# [7] = target: Vascular endothelial growth factor receptor 2 (Homo sapiens) (UniProt P35968); experiment: Inhibition of KDR (unknown origin) at 200 nM by electrophoretic mobility shift assay
# [8] = target: Tyrosine-protein kinase Lck (Homo sapiens) (UniProt P06239); experiment: Inhibition of LCK (unknown origin) at 200 nM by electrophoretic mobility shift assay
# Sequence of Tyrosine-protein kinase Lck (Homo sapiens) (P06239 2-509 limits assumed): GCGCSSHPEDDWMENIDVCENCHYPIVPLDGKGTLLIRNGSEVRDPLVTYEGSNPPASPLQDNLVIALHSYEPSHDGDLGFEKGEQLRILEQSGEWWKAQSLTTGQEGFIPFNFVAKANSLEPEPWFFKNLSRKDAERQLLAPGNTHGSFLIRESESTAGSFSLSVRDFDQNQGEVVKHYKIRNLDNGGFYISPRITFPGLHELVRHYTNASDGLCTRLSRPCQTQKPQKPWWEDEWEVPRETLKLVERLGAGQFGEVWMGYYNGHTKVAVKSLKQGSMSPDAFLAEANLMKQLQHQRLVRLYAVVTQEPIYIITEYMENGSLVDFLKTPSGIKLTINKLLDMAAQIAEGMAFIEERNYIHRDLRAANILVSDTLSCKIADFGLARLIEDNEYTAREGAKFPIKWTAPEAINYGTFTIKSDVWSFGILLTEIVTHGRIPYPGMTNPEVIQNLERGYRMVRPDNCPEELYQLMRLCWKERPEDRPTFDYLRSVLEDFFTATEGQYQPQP
# [9] = target: Protein-tyrosine kinase 2-beta (Homo sapiens) (UniProt Q14289); experiment: Inhibition of PYK2 (unknown origin) at 200 nM by electrophoretic mobility shift assay
# [10] = target: Proto-oncogene tyrosine-protein kinase Src (Homo sapiens) (UniProt P12931); experiment: Inhibition of SRC (unknown origin) at 200 nM by electrophoretic mobility shift assay
# Sequence of Proto-oncogene tyrosine-protein kinase Src (Homo sapiens) (P12931 2-536 limits assumed): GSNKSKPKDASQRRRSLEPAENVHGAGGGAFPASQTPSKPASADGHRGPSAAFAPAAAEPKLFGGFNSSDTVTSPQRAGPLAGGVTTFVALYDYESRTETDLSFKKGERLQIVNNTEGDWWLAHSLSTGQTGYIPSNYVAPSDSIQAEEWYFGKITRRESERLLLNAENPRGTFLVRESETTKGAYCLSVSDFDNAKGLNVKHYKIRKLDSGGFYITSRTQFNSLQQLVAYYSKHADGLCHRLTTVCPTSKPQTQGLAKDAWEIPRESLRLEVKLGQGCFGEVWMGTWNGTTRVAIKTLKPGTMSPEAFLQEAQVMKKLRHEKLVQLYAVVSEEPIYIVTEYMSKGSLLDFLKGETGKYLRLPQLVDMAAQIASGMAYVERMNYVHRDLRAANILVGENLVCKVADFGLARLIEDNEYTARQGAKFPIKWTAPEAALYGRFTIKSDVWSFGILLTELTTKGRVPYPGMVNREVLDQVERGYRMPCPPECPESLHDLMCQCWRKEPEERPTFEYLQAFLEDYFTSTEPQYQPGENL
# [11] = target: Angiopoietin-1 receptor (Homo sapiens) (UniProt Q02763); experiment: Inhibition of TIE2 (unknown origin) at 200 nM by electrophoretic mobility shift assay
# [12] = target: High affinity nerve growth factor receptor (Homo sapiens) (UniProt P04629); experiment: Inhibition of TRKA (unknown origin) at 200 nM by electrophoretic mobility shift assay
# [13] = target: Tyrosine-protein kinase receptor TYRO3 (Homo sapiens) (UniProt Q06418); experiment: Inhibition of TYRO3 (unknown origin) at 200 nM by electrophoretic mobility shift assay
# [14] = target: RAC-alpha serine/threonine-protein kinase (Homo sapiens) (UniProt P31749); experiment: Inhibition of AKT1 (unknown origin) at 200 nM by electrophoretic mobility shift assay
# [15] = target: Aurora kinase A (Homo sapiens) (UniProt O14965); experiment: Inhibition of AurA (unknown origin) at 200 nM by electrophoretic mobility shift assay
# [16] = target: Calcium/calmodulin-dependent protein kinase type IV (Homo sapiens) (UniProt Q16566); experiment: Inhibition of CaMK4 (unknown origin) at 200 nM by electrophoretic mobility shift assay
# Sequence of Calcium/calmodulin-dependent protein kinase type IV (Homo sapiens) (Q16566 whole entry): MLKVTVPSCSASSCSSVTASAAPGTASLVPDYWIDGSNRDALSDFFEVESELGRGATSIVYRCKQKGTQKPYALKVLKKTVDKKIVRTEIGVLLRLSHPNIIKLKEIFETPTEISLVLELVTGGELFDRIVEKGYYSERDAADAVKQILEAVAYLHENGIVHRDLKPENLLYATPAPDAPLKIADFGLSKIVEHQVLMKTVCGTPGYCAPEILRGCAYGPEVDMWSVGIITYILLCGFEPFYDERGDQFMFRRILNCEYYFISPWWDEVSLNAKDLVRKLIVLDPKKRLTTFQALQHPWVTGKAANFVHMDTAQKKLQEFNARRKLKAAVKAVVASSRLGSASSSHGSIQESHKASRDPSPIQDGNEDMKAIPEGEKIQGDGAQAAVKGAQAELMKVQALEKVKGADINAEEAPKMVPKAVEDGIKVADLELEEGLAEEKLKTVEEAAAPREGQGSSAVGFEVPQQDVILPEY
# [17] = target: CDK2/Cyclin A2 (Homo sapiens) (UniProt P24941+P20248); experiment: Inhibition of CDK2/CycA2 (unknown origin) at 200 nM by electrophoretic mobility shift assay; format: protein-complex assay
# [18] = target: Serine/threonine-protein kinase Chk1 (Homo sapiens) (UniProt O14757); experiment: Inhibition of CHK1 (unknown origin) at 200 nM by electrophoretic mobility shift assay
# [19] = target: Casein kinase I isoform epsilon (Homo sapiens) (UniProt P49674); experiment: Inhibition of CK1 epsilon (unknown origin) at 200 nM by electrophoretic mobility shift assay
# [20] = target: Death-associated protein kinase 1 (Homo sapiens, UniProt P53355); experiment: Inhibition of DAPK1 (unknown origin) at 200 nM by electrophoretic mobility shift assay
# [21] = target: Dual specificity tyrosine-phosphorylation-regulated kinase 1B (Homo sapiens) (UniProt Q9Y463); experiment: Inhibition of DYRK1B (unknown origin) at 200 nM by electrophoretic mobility shift assay
# [22] = target: Mitogen-activated protein kinase 1 (Homo sapiens) (UniProt P28482); experiment: Inhibition of Erk2 (unknown origin) at 200 nM by electrophoretic mobility shift assay
# [23] = target: Interleukin-1 receptor-associated kinase 4 (Homo sapiens) (UniProt Q9NWZ3); experiment: Inhibition of IRAK4 (unknown origin) at 200 nM by electrophoretic mobility shift assay
# Sequence of Interleukin-1 receptor-associated kinase 4 (Homo sapiens) (Q9NWZ3 whole entry): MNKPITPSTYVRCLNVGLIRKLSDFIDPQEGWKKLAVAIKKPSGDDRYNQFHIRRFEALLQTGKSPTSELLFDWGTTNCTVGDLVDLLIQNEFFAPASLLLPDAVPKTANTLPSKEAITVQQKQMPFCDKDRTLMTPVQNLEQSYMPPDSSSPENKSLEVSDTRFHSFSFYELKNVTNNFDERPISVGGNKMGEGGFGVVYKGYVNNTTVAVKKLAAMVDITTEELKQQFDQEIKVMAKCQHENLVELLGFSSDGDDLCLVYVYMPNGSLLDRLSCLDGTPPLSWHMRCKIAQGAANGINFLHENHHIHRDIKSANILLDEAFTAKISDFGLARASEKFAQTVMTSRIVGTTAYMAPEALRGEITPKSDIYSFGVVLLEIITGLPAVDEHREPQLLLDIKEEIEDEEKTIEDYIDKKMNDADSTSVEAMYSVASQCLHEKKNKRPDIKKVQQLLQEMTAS
# [24] = target: Serine/threonine-protein kinase Nek2 (Homo sapiens) (UniProt P51955); experiment: Inhibition of NEK2 (unknown origin) at 200 nM by electrophoretic mobility shift assay
# Homo sapiens = organism: Homo sapiens; experiment: Inhibition of p70S6k (unknown origin) at 200 nM by electrophoretic mobility shift assay
# [25] = target: Serine/threonine-protein kinase PAK 4 (Homo sapiens) (UniProt O96013); experiment: Inhibition of PAK4 (unknown origin) at 200 nM by electrophoretic mobility shift assay
# Sequence of Serine/threonine-protein kinase PAK 4 (Homo sapiens) (O96013 whole entry, looked up): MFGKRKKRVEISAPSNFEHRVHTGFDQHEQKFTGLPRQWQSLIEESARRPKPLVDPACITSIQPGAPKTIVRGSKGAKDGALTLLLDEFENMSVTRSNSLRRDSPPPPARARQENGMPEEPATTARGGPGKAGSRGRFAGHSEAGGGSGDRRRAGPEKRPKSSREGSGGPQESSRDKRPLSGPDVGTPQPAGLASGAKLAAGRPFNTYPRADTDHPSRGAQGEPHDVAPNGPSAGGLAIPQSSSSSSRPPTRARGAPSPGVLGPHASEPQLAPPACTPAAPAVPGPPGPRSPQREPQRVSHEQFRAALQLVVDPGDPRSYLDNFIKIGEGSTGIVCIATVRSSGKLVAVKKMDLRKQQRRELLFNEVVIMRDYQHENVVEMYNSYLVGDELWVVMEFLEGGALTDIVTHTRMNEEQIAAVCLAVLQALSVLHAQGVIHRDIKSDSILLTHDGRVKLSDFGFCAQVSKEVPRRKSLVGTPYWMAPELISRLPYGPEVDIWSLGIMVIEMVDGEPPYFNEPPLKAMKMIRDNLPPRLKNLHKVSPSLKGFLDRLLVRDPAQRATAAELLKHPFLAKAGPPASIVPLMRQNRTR
# [26] = target: 3-phosphoinositide-dependent protein kinase 1 (Homo sapiens) (UniProt O15530); experiment: Inhibition of PDK1 (unknown origin) at 200 nM by electrophoretic mobility shift assay
# [27] = target: Serine/threonine-protein kinase pim-1 (Homo sapiens, UniProt P11309); experiment: Inhibition of PIM1 (unknown origin) at 200 nM by electrophoretic mobility shift assay
# [28] = target: Serine/threonine-protein kinase pim-2 (Homo sapiens, UniProt Q9P1W9); experiment: Inhibition of PIM2 (unknown origin) at 200 nM by electrophoretic mobility shift assay
# [29] = target: Serine/threonine-protein kinase pim-3 (Homo sapiens, UniProt Q86V86); experiment: Inhibition of PIM3 (unknown origin) at 200 nM by electrophoretic mobility shift assay
# [30] = target: cAMP-dependent protein kinase catalytic subunit alpha (Homo sapiens) (UniProt P17612); experiment: Inhibition of PKACalpha (unknown origin) at 200 nM by electrophoretic mobility shift assay
# [31] = target: Serine/threonine-protein kinase D2 (Homo sapiens) (UniProt Q9BZL6); experiment: Inhibition of PKD2 (unknown origin) at 200 nM by electrophoretic mobility shift assay
# [32] = target: Rho-associated protein kinase 1 (Homo sapiens) (UniProt Q13464); experiment: Inhibition of ROCK1 (unknown origin) at 200 nM by electrophoretic mobility shift assay
inhibition [1] [%],inhibition [2] [%],inhibition at 10 µM (CYP2C9) [%],inhibition at 10 µM (CYP2C19) [%],inhibition at 10 µM (CYP2D6) [%],inhibition at 10 µM (CYP3A4) [%],inhibition [3] [%],inhibition [4] [%],inhibition [5] [%],inhibition [6] [%],inhibition [7] [%],inhibition [8] [%],inhibition [9] [%],inhibition [10] [%],inhibition [11] [%],inhibition [12] [%],inhibition [13] [%],inhibition [14] [%],inhibition [15] [%],SMILES,inhibition at 10 µM (hERG (KCNH2)) [%],other results
-7.7,11.3,< 1,< 1,23,39,-4.1,-8,-2.2,-4,-5,-5.2,-0.4,-0.9,0,1.8,-2.7,-0.2,5.1,COc1ccc2c(c1CN1CCNCC1)O/C(=C\c1n[nH]c3ncccc13)C2=O,34,inhibition [16]: -4.6%; inhibition [17]: 28.2%; inhibition [18]: 9.2%; inhibition [19]: 3.1%; inhibition [20]: 80.5%; inhibition [21]: 24.8%; inhibition [22]: 4.9%; inhibition [23]: -3.8%; inhibition [24]: -2.1%; inhibition (Homo sapiens): 66.5%; inhibition [25]: 13%; inhibition [26]: -3.7%; inhibition [27]: 102%; inhibition [28]: 28.4%; inhibition [29]: 102%; inhibition [30]: 4%; inhibition [31]: 31.6%; inhibition [32]: 88.9%
-0.4,-9.9,< 1,16,14,< 1,1,-1,-0.3,3.1,2,0.1,11.2,0.7,0.8,10.3,3.5,1.7,-0.4,COc1ccc2c(c1C(C)N1CCNCC1)O/C(=C\c1n[nH]c3ncccc13)C2=O (stereo unspecified),34,inhibition [16]: -1.5%; inhibition [17]: 13.7%; inhibition [18]: 4.1%; inhibition [19]: -0.5%; inhibition [20]: 94.9%; inhibition [21]: 48%; inhibition [22]: 0.2%; inhibition [23]: -0.6%; inhibition [24]: -4%; inhibition (Homo sapiens): 47.3%; inhibition [25]: -6.7%; inhibition [26]: 0.2%; inhibition [27]: 99.4%; inhibition [28]: 30.2%; inhibition [29]: 99%; inhibition [30]: 18.4%; inhibition [31]: 13.1%; inhibition [32]: 77%
